Among the data in patent US20240368096A1 (Enanta Pharmaceuticals, Inc., priority 2022, published 2024) are EC50 values, retold here.

A word on the EC50: it is the concentration that produces a half-maximal response.

This test relates to HBV. Description: HBV infection in HepG2-NTCP cells (HBeAg AlphaLISA in supernatants). As to conditions: Hepatitis B virus, 192 h; HBV infection of HepG2-NTCP cells; HBeAg in supernatants at day 8 post infection; read-out: Cellular EC50. Type of test: cell-based. The gist of the method: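 HepG2-NTCP A3 cells were pre-incubated 2 h with 3-fold serially diluted compounds, then infected with HBV at 2000 GE/cell with 4% PEG (0.5% DMSO final). After washing on day 1, cells stayed in 2.5% DMSO medium; supernatant HBeAg measured by AlphaLISA on day 8, EC50 versus DMSO controls.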
(In general: In Alpha technology, singlet oxygen from a donor bead excites a nearby acceptor bead.)
With `CN1[C@H](C2CCCCC2)CN(c2ccccc2)c2cc(Cl)c(-c3cc(C(=O)O)ncn3)cc2S1(=O)=O` [Example 140, (R)-6-(7-chloro-3-cyclohexyl-2-methyl-1,1-dioxido-5-phenyl-2,3,4,5-tetrahydrobenzo[f][1,2,5]thiadiazepin-8-yl)pyrimidine-4-carboxylic acid], the EC50 was in the range of 100 to 1000 nM. For `CC(C)C[C@@H]1CN(c2ccccc2)c2cc(OCc3cncs3)c(-c3ccc(F)c(C(=O)O)c3)cc2S(=O)(=O)N1C` [Example 458] the value was below 100 nM; for `CC(C)C[C@@H]1CN(c2ccccc2)c2cc(-c3cccnc3)c(-c3ccc(F)c(C(=O)O)c3)cc2S(=O)(=O)N1C` [Example 580], below 100 nM. Consider `CC(C)C[C@@H]1CN(c2ccccc2)c2cc(Cl)c(-c3ccc4o[nH]c(=O)c4c3)cc2S(=O)(=O)N1C` [Example 180], for which the EC50 is 100 to 1000 nM. On to `CN1[C@H](C2CCCC2)CN(c2ccccc2)c2cc(Cl)c(-c3ccc(Cl)c(C(=O)O)c3)cc2S1(=O)=O` [Example 67], for which the EC50 was below 100 nM. With `Cc1cc(F)cc(Oc2cc3c(cc2-c2ccc(F)c(C(=O)O)c2)S(=O)(=O)N(C)[C@H](C2CCCCC2)CN3c2ccccc2)c1` [Example 412], the EC50 is below 100 nM. Then `O=C(O)c1cccc(-c2cc3c(cc2F)N(c2ccccc2)CC2c4ccccc4CN2S3(=O)=O)c1` (stereo not shown) [Example 3], with above 1000 nM. Then `CC(C)C[C@@H]1CN(c2ccccc2)c2cc(OC3COC3)c(-c3ccc(F)c(C(=O)O)c3)cc2S(=O)(=O)N1C` [Example 443], with 100 to 1000 nM; and `CN1[C@@H](CC2CC2)CN(c2ccccc2)c2cc(Cl)c(-c3cccc(C(=O)O)c3)cc2S1(=O)=O` [Example 41], with above 1000 nM; and `CN1[C@H](C2CCCCC2)CN(c2ccccc2)c2cc(C3COC3)c(-c3ccc(F)c(C(=O)O)c3)cc2S1(=O)=O` [Example 588], with 100 to 1000 nM. As for `CN1C(C23CC(C2)C3)CN(c2ccccc2)c2cc(Cl)c(-c3ccc(F)c(C(=O)O)c3)cc2S1(=O)=O` (stereo not shown) [Example 86], the EC50 lay within 100 to 1000 nM. Then `CC(C)C[C@@H]1CN(c2ccccc2)c2cc(Oc3ccc(OC(F)(F)F)cc3)c(-c3ccc(F)c(C(=O)O)c3)cc2S(=O)(=O)N1C` [Example 439], with below 100 nM; and `CC1CN(c2ccccc2)c2cc(F)c(-c3ccc(F)c(C(=O)O)c3)cc2S(=O)(=O)N1C` (stereo not shown) [Example 1, 2-fluoro-5-(7-fluoro-2,3-dimethyl-1,1-dioxido-5-phenyl-2,3,4,5-tetrahydrobenzo[f][1,2,5]thiadiazepin-8-yl)benzoic acid], with above 1000 nM. As for `COc1cc2c(cc1-c1cccc(C(=O)O)c1)S(=O)(=O)N(C)C(C)CN2c1ccccc1` (stereo not shown) [Example 15, 3-(7-methoxy-2,3-dimethyl-1,1-dioxido-5-phenyl-2,3,4,5-tetrahydrobenzo[f][1,2,5]thiadiazepin-8-yl)benzoic acid], the EC50 is above 1000 nM. Consider `CN1[C@H](C2CCCCC2)CN(c2ccccc2)c2cc(Cl)c(-c3ccc(F)c(S(N)(=O)=O)c3)cc2S1(=O)=O` [Example 199], for which the EC50 is 100 to 1000 nM. With `CCCCC[C@@H](C)Oc1cc2c(cc1-c1ccc(F)c(C(=O)O)c1)S(=O)(=O)N(C)[C@H](C1CCCCC1)CN2c1ccccc1` [Example 355], the EC50 is below 100 nM. With `CN1[C@H](CNC(C)(C)C)CN(c2ccccc2)c2cc(Cl)c(-c3ccc(F)c(C(=O)O)c3)cc2S1(=O)=O` [Example 114], the EC50 is above 1000 nM.

On to `CCO[C@@H](C)[C@@H]1CN(c2ccccc2)c2cc(Cl)c(-c3ccc(F)c(C(=O)O)c3)cc2S(=O)(=O)N1C` [Example 89], for which the EC50 lay within 100 to 1000 nM. For `CN1[C@H](C2CCCCC2)CN(c2ccccc2)c2cc(Cl)c(-c3ccc([N+](=O)[O-])c(C(=O)O)c3)cc2S1(=O)=O` [Example 189, (R)-5-(7-chloro-3-cyclohexyl-2-methyl-1,1-dioxido-5-phenyl-2,3,4,5-tetrahydrobenzo[f][1,2,5]thiadiazepin-8-yl)-2-nitrobenzoic acid], the EC50 is below 100 nM. As to `CN1[C@H](C2CCCCC2)CN(c2ccccc2)c2cc(O[C@@H]3CCCNC3)c(-c3ccc(F)c(C(=O)O)c3)cc2S1(=O)=O` [Example 399], the EC50 is above 1000 nM. Turning to `Cc1nc(COc2cc3c(cc2-c2cc(F)c(C(=O)O)s2)S(=O)(=O)N(C)[C@H](C2CCCCC2)CN3c2ccccc2)sc1C` [Example 500], the EC50 was below 100 nM. On to `CN1[C@H](C2CCC(F)(F)CC2)CN(c2ccccc2)c2cc(Cl)c(-c3ccc(F)c(C(=O)O)c3)cc2S1(=O)=O` [Example 27], for which the EC50 was 100 to 1000 nM. For `CN1[C@H](C2CCCCC2)CN(c2ccccc2)c2cc(Cl)c(-c3cc(C(=O)O)cc(C(F)(F)F)c3)cc2S1(=O)=O` [Example 142, (R)-3-(7-chloro-3-cyclohexyl-2-methyl-1,1-dioxido-5-phenyl-2,3,4,5-tetrahydrobenzo[f][1,2,5]thiadiazepin-8-yl)-5-(trifluoromethyl)benzoic acid], the EC50 is 100 to 1000 nM. As for `CCCOC(=O)Nc1cc(-c2cc3c(cc2Cl)N(c2ccccc2)C[C@@H](C2CCCCC2)N(C)S3(=O)=O)sc1C(=O)O` [Example 243], the EC50 was below 100 nM. Then `CN1[C@H](C2CCCCC2)CN(c2ccccc2)c2cc(Cl)c(-c3cc(C(=O)O)c4ccccc4c3)cc2S1(=O)=O` [Example 196], with 100 to 1000 nM. On to `CCCCCNc1cc2c(cc1-c1ccc(F)c(C(=O)O)c1)S(=O)(=O)N(C)[C@H](C1CCCCC1)CN2c1ccccc1` [Example 528], for which the EC50 is below 100 nM. Take `CN1[C@H](C2CCCCC2)CN(c2ccccc2)c2cc(Oc3cccc(F)c3F)c(-c3ccc(F)c(C(=O)O)c3)cc2S1(=O)=O` [Example 402]: the EC50 is below 100 nM. Take `CC(C)CC1CN(c2ccccc2)c2cc(Cl)c(-c3ccc(F)c(C(=O)O)c3)cc2S(=O)(=O)N1C` (stereo not shown) [Example 34]: the EC50 is below 100 nM. As for `CO[C@@H](C)[C@@H]1CN(c2ccccc2)c2cc(Cl)c(-c3ccc(F)c(C(=O)O)c3)cc2S(=O)(=O)N1C` [Example 88, 5-((S)-7-chloro-3-((S)-1-methoxyethyl)-2-methyl-1,1-dioxido-5-phenyl-2,3,4,5-tetrahydrobenzo[f][1,2,5]thiadiazepin-8-yl)-2-fluorobenzoic acid], the EC50 is above 1000 nM.

On to `CN1[C@H](C2CCCCC2)CN(c2ccccc2)c2cc(Cl)c(-c3cc(NC(=O)OC(C)(C)C)c(C(=O)O)s3)cc2S1(=O)=O` [Example 238, (R)-3-((tert-butoxycarbonyl)amino)-5-(7-chloro-3-cyclohexyl-2-methyl-1,1-dioxido-5-phenyl-2,3,4,5-tetrahydrobenzo[f][1,2,5]thiadiazepin-8-yl)thiophene-2-carboxylic acid], for which the EC50 was 100 to 1000 nM. `CN1[C@H](C2CC2)CN(c2ccccc2)c2cc(Cl)c(-c3ccc(F)c(C(=O)O)c3)cc2S1(=O)=O` [Example 64, (R)-5-(7-chloro-3-cyclopropyl-2-methyl-1,1-dioxido-5-phenyl-2,3,4,5-tetrahydrobenzo[f][1,2,5]thiadiazepin-8-yl)-2-fluorobenzoic acid]: the EC50 lay within 100 to 1000 nM.

Take `Cc1ccc(C(=O)O)cc1-c1cc2c(cc1Cl)N(c1ccccc1)C[C@@H](C1CCCCC1)N(C)S2(=O)=O` [Example 145, (R)-3-(7-chloro-3-cyclohexyl-2-methyl-1,1-dioxido-5-phenyl-2,3,4,5-tetrahydrobenzo[f][1,2,5]thiadiazepin-8-yl)-4-methylbenzoic acid]: the EC50 was above 1000 nM.

As to `CC(C)CCCCCOc1cc2c(cc1-c1ccc(F)c(C(=O)O)c1)S(=O)(=O)N(C)[C@H](C1CCCCC1)CN2c1ccccc1` [Example 362], the EC50 was below 100 nM.

For `CCCC[C@@H]1CN(c2ccccc2)c2cc(Nc3ccccc3F)c(-c3cc(F)c(F)c(C(=O)O)c3)cc2S(=O)(=O)N1C` [Example 560, (R)-5-(3-butyl-7-((2-fluorophenyl)amino)-2-methyl-1,1-dioxido-5-phenyl-2,3,4,5-tetrahydrobenzo[f][1,2,5]thiadiazepin-8-yl)-2,3-difluorobenzoic acid], the EC50 is below 100 nM. As to `Cc1cc(COc2cc3c(cc2-c2cc(F)c(C(=O)O)s2)S(=O)(=O)N(C)[C@H](C2CCCCC2)CN3c2ccccc2)c(C)s1` [Example 492], the EC50 was below 100 nM.

`Cc1ccc(F)cc1Oc1cc2c(cc1-c1ccc(F)c(C(=O)O)c1)S(=O)(=O)N(C)[C@H](C1CCCCC1)CN2c1ccccc1` [Example 413]: the EC50 was 100 to 1000 nM. With `CN1C(CC2CCCC2)CN(c2ccccc2)c2cc(Cl)c(-c3ccc(F)c(C(=O)O)c3)cc2S1(=O)=O` (stereo not shown) [Example 77], the EC50 lay within 100 to 1000 nM. Turning to `COc1cc(-c2cc3c(cc2Cl)N(c2ccccc2)C[C@@H](C2CCCCC2)N(C)S3(=O)=O)cc(C(=O)O)c1N` [Example 191], the EC50 was below 100 nM.

Consider `Cc1cc(-c2cc3c(cc2OC2CCC2)N(c2ccccc2)C[C@@H](C2CCCCC2)N(C)S3(=O)=O)sc1C(=O)O` [Example 513, (R)-5-(7-cyclobutoxy-3-cyclohexyl-2-methyl-1,1-dioxido-5-phenyl-2,3,4,5-tetrahydrobenzo[f][1,2,5]thiadiazepin-8-yl)-3-methylthiophene-2-carboxylic acid], for which the EC50 was below 100 nM.

On to `CCOC[C@@H]1CN(c2ccccc2)c2cc(Cl)c(-c3ccc(F)c(C(=O)O)c3)cc2S(=O)(=O)N1C` [Example 93, (S)-5-(7-chloro-3-(ethoxymethyl)-2-methyl-1,1-dioxido-5-phenyl-2,3,4,5-tetrahydrobenzo[f][1,2,5]thiadiazepin-8-yl)-2-fluorobenzoic acid], for which the EC50 lay in the range of 100 to 1000 nM. For the compound `COc1cccc(Oc2cc3c(cc2-c2ccc(F)c(C(=O)O)c2)S(=O)(=O)N(C)[C@H](CC(C)C)CN3c2ccccc2)c1` [Example 427], the EC50 was below 100 nM.

Turning to `CN1[C@H](C2CCCCC2)CN(c2ccccc2)c2cc(C3CN(C(=O)OC(C)(C)C)C3)c(-c3ccc(F)c(C(=O)O)c3)cc2S1(=O)=O` [Example 594], the EC50 was 100 to 1000 nM. On to `CC(=O)NS(=O)(=O)c1cccc(-c2cc3c(cc2Cl)N(c2ccccc2)C[C@@H](C2CCCCC2)N(C)S3(=O)=O)c1` [Example 222], for which the EC50 fell in the range of 100 to 1000 nM.
